Data as given in ChEMBL document CHEMBL3393032, “Synthesis of oolongtheanins and their inhibitory activity on micellar cholesterol solubility in vitro” (Bioorg Med Chem Lett, 2015).

Experiment: Inhibition of micellar solubility of cholesterol assessed as cholesterol solubility at 10 g/L using [4-14C]cholesterol incubated at 37 degC for 1 hr by liquid scintillation counting method
Assay type: physicochemical
Design: scale not given: the % may be the effect or the level left

Row | SMILES | Activity [%]
1 | O=C1C(O)=C[C@@]2([C@H]3Oc4cc(O)cc(O)c4C[C@H]3O)Oc3c(O)c(O)cc([C@H]4Oc5cc(O)cc(O)c5C[C@H]4O)c3[C@@H]12 | 26.39
2 | O=C(O[C@@H]1Cc2c(O)cc(O)cc2O[C@@H]1c1cc(O)c(O)c2c1[C@H]1C(=O)C(O)=C[C@@]1([C@H]1Oc3cc(O)cc(O)c3C[C@H]1OC(=O)c1cc(O)c(O)c(O)c1)O2)c1cc(O)c(O)c(O)c1 | 1.4
